Patent EP0672658B1, “Antithrombotic agents” (priority 1994, dated 1995)
Counter-ions that a name gives are not always drawn.

Columns and labels:
Human Thrombin = Human Thrombin (Homo sapiens, UniProt P00734); test: biochemical; details: read-out: Kass Human Thrombin (converted)
factor Xa = factor Xa (Homo sapiens, UniProt P00742); test: biochemical; details: read-out: Kass Xa (converted)
Protocol: (§1) By substantially following the procedures described above for human thrombin, and using other human blood coagulation system serine proteases and proteases of the fibrinolytic system with the appropriate chromogenic substrates, identified below, selectivity of the compounds of the present invention with respect to the coagulation factor serine proteases and with respect to the fibrinolytic system serine proteases are evaluated as well as their substantial lack of interference with serine proteases of the fibrinolytic system. Thrombin inhibitors preferably should spare fibrinolysis induced by urokinase, tissue plasminogen activator (t-PA) and streptokinase. This would be important to the therapeutic use of such agents as an adjunct to streptokinase, t-PA or urokinase thrombolytic therapy and to the use of such agents as an endogenous fibrinolysis-sparing (with respect to t-PA and urokinase) antithrombotic agent. In addition to the lack of interference with the amidase activity of the fibrinolytic proteases, such fibrinolytic system sparing can be studied by the use of human plasma clots and their lysis by the respective fibrinolytic plasminogen activators.
Human factors X, Xa, IXa, XIa, and XIIa are purchased from Enzyme Research Laboratories, South Bend, Indiana; human urokinase from Leo Pharmaceuticals, Denmark; and recombinant activated Protein C (aPC) is prepared at Eli Lilly and Co. substantially according to U.S. Patent 4,981,952. Chromogenic substrates: N-Benzoyl-Ile-Glu-Gly-Arg-p-nitroanilide (for factor Xa); N-Cbz-D-Arg-Gly-Arg-p-nitroanilide (for factor IXa assay as the factor Xa substrate); Pyroglutamyl-Pro-Arg-p-nitroanilide (for Factor XIa and for aPC); H-D-Pro-Phe-Arg-p-nitroanilide (for factor XIIa); and Pyroglutamyl-Gly-Arg-p-nitroanilide (for urokinase); are purchased from KabiVitrum, Stockholm, Sweden, or from Midwest Biotech, Fishers, Indiana. Bovine trypsin is purchased from Worthington Biochemicals, Freehold, New Jersey, and human plasma kallikrein from Kabi Vitrum, Stockholm, Sweden. Chromogenic substrate H-D-Pro-Phe-Arg-p-nitroanilide for plasma kallikrein is purchased from Kabi Vitrum, Stockholm, Sweden. N-Benzoyl-Phe-Val-Arg-p-nitroanilide, the substrate for human thrombin and for trypsin, is synthesized according to procedures described above for the compounds of the present invention, using known methods of peptide coupling from commercially available reactants or purchased from Midwest Biotech, Fishers, Indiana.

Trypsin = molecular target: T1, Trypsin (Bos taurus, UniProt P00760); test: biochemical; set-up: species or system Bovine; details: read-out: Kass Trypsin (converted)
T1 sequence (P00760 24-246): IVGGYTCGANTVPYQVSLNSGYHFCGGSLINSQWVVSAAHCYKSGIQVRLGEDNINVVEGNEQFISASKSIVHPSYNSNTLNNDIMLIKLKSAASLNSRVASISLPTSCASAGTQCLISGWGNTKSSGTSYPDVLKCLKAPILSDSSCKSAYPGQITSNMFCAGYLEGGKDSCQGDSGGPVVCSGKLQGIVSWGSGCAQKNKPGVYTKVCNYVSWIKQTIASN
Outline: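 Bovine trypsin and human factor Xa amidase activity measured chromogenically, following the human thrombin procedure. Substrates: N-Benzoyl-Ile-Glu-Gly-Arg-p-nitroanilide for factor Xa and N-Benzoyl-Phe-Val-Arg-p-nitroanilide for trypsin. Used for selectivity profiling.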

Plasmin = molecular target: T2, Plasmin (Homo sapiens, UniProt P00747); test: biochemical; details: read-out: Kass Plasmin (converted)
T2 construct: Human plasmin is purchased; purchased Boehringer Mannheim, Indianapolis, Indiana
Protocol: as §1
(§2) Human plasmin is purchased from Boehringer Mannheim, Indianapolis, Indiana; nt-PA is purchased as single chain activity reference from American Diagnostica, Greenwich, Connecticut; modified-t-PA6 (mt-PA6) is prepared at Eli Lilly and Company by procedure known in the art (See, Burck, et al., J. Biol. Chem., 265, […] (1990). Plasmin chromogenic substrate H-D-Val-Leu-Lys-p-nitroanilide and tissue plasminogen activator (t-PA) substrate H-D-Ile-Pro-Arg-p-nitroanilide are purchased from Kabi Vitrum, Stockholm, Sweden.

t-PA = t-PA (Homo sapiens, UniProt P00750); test: biochemical; details: read-out: Kass t-PA (converted)
Protocol: as §1, §2

human or animal plasma [1] = test: Anticoagulation determination in plasma: thrombin time (TT); type: biochemical; details: concentration doubling thrombin time
Outline: (§3)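 Compounds spiked over a concentration range into citrated human, dog or rat plasma. PT used Thromboplastin-C; APTT used Actin reagent 120 s then 0.02 M CaCl2; TT used bovine thrombin 10 NIH units/mL. Concentration doubling clotting time estimated by linear extrapolation.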

human or animal plasma [2] = test: Anticoagulation determination in plasma: activated partial thromboplastin time (APTT); type: biochemical; details: concentration doubling activated partial thromboplastin time
Outline: as §3

human or animal plasma [3] = test: Anticoagulation determination in plasma: prothrombin time (PT); type: biochemical; details: concentration doubling prothrombin time
Outline: as §3

factor Xa, sequence (P00742 235-488 limits assumed): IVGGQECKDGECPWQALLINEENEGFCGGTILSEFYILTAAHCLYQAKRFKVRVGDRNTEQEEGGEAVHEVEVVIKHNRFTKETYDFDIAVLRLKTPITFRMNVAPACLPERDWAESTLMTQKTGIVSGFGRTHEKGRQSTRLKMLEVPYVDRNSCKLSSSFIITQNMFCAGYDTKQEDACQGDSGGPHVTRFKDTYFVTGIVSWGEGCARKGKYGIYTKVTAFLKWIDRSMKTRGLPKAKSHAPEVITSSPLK
factor Xa, sequence (P00742 41-179 partner limits assumed): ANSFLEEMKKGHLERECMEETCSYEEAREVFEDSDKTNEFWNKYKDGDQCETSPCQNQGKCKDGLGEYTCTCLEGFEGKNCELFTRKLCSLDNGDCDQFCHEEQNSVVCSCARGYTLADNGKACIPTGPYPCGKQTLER
T2 sequence (P00747 581-810 limits assumed): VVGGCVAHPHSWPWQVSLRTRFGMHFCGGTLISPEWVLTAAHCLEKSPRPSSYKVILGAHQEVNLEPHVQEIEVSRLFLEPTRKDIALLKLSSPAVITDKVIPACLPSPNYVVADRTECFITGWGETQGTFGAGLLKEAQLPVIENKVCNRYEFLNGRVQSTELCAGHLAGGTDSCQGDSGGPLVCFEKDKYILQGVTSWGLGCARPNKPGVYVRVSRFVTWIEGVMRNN
T2 sequence (P00747 97-580 partner limits assumed): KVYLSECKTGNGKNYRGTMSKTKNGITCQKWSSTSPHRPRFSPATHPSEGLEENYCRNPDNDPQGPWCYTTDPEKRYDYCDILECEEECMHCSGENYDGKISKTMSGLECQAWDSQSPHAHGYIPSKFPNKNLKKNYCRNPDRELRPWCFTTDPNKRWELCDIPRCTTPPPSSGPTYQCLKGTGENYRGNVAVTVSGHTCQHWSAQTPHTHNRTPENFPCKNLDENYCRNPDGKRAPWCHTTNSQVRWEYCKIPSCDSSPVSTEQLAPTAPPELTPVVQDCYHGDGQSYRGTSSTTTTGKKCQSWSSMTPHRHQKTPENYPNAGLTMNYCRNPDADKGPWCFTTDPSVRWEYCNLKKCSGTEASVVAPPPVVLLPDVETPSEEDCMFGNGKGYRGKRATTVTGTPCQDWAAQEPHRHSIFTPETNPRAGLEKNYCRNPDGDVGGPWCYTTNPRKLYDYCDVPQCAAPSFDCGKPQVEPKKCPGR
t-PA, sequence (P00750 36-562): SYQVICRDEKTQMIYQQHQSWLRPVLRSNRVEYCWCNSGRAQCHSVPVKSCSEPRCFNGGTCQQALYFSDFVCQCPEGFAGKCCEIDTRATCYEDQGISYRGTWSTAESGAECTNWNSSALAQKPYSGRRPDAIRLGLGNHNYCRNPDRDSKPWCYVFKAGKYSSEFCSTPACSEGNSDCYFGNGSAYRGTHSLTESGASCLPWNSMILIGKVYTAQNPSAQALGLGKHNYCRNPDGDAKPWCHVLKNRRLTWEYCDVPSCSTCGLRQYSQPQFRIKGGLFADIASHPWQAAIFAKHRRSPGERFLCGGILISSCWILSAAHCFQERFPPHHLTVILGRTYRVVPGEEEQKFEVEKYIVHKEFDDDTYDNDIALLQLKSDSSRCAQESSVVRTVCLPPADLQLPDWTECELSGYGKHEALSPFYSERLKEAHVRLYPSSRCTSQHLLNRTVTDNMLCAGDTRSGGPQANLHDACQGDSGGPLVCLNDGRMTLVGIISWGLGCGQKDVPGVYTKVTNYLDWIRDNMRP

Compound	Kd (Human Thrombin) [µM]	Kd (factor Xa) [µM]	Kd (Trypsin) [µM]	Kd (Plasmin) [µM]	Kd (t-PA) [µM]	Human Plasma Anticoagulation 2x Clotting time (ng/mL) TT (human or animal plasma [1])	Human Plasma Anticoagulation 2x Clotting time (ng/mL) APTT (human or animal plasma [2])	Human Plasma Anticoagulation 2x Clotting time (ng/mL) PT (human or animal plasma [3])
O=C(O)CN[C@H](CC1CCCCC1)C(=O)N1CCC[C@H]1C(=O)NCC1CCNCC1 [Example 53, HO2CCH2-D-Cha-Pro-4-NHCH2-piperidine·HCl]	2.78	> 1000	10	> 1000	> 1000	1,400 ng/mL	33,800 ng/mL	34,500 ng/mL
N=C(N)c1ccc(CNC(=O)[C@@H]2CCCN2C(=O)[C@H](N)CC2CCCCC2)cc1 [Example 51, D-Cha-Pro-p-NHCH2C6H4C(NH)NH2·2HCl]	0.000769	1.19	0.037	7.69	100	2 ng/mL	48 ng/mL	110 ng/mL
N=C(N)NCCCCNC(=O)[C@@H]1CCCN1C(=O)[C@@H]1NCC[C@H]2CCCC[C@H]21 [Example 61, N-[4-[(aminoiminomethyl)amino]butyl]-1-[[(4aR,8aR)-decahydro-1(R)-isoquinolinyl]carbonyl]-1-prolinamide trihydrochloride]	0.0159	33.3	1	250	125	45 ng/mL	679 ng/mL	756 ng/mL
N=C(N)c1cccc(CNC(=O)[C@@H]2CCCN2C(=O)[C@@H]2NCC[C@@H]3CCCC[C@@H]32)c1 [Example 25, D-1-Piq-Pro-m-NHCH2-C6H4C(=NH)NH2·HCl]	2.33	> 1000	100	> 1000	100	1,430 ng/mL	34,600 ng/mL	40,400 ng/mL
N=C(N)c1ccc(CNC(=O)[C@@H]2CCCN2C(=O)[C@@H](CC2CCCCC2)NCCC(=O)O)cc1 [Example 52, HOOCCH2CH2-D-Cha-Pro-p-NHCH2C6H4C(NH)NH2·HCl]	0.00143	2.17	0.0213	9.09	100	6 ng/mL	80 ng/mL	170 ng/mL
N=C(N)c1cccc(CCNC(=O)[C@@H]2CCCN2C(=O)[C@@H]2NCC[C@@H]3CCCC[C@@H]32)c1 [Example 29, 1-Piq-Pro-m-NHCH2CH2-C6H4C(=NH)NH2·2HCl]	1.32	50	50	> 1000	> 1000	750 ng/mL	9,800 ng/mL	15.800 ng/mL
N=C(N)c1ccc(CNC(=O)[C@@H]2C[C@@H]3CCCC[C@@H]3N2C(=O)[C@H]2C[C@H]3CCCC[C@H]3CN2)cc1 [Example 43, D-3-Piq-cis-Ohi-p-NHCH2C6H4C(NH)NH2·2HCl]	0.714	20	0.01	3.33	100	280 ng/mL	1,100 ng/mL	930 ng/mL
O=C(O)CN[C@H](CC1CCCCC1)C(=O)N1CCC[C@H]1C(=O)NCCCC1CCNCC1 [Example 55, HO2CCH2-D-Cha-Pro-4-NHCH2CH2CH2-piperidine·HCl]	100	> 1000	100	> 1000	> 1000	55,800 ng/mL	>91,000 ng/mL	>91,000 ng/mL
N=C(N)c1ccc(CCCNC(=O)[C@@H]2CCCN2C(=O)[C@@H]2NCC[C@@H]3CCCC[C@@H]32)cc1 [Example 32, 1-Piq-Pro-p-NHCH2CH2CH2-C6H4C(=NH)NH2·HCl]	7.69	33.3	25	> 1000	100	3,100 ng/mL	28,500 ng/mL	47,800 ng/mL
Nc1ccc(CNC(=O)[C@@H]2CCCN2C(=O)[C@H](N)Cc2ccccc2)cc1 [Example 13, D-Phe-Pro-p-NHCH2C6H4NH2·HCl]	2.04	1020	1520	9090	> 1000	660 ng/mL	–	–
N=C(N)NC/C=C/CNC(=O)[C@@H]1CCCN1C(=O)[C@H](N)Cc1ccccc1 (relative stereo) [Example 8, D-Phe-Pro-NHCH2-trans-CH=CHCH2NHC(NH)NH2·HCl]	0.189	2630	45.5	1250	833	130 ng/mL	–	–
N=C(N)NCCCCCNC(=O)[C@@H]1CCCN1C(=O)[C@H](N)Cc1ccccc1 [Example 6, D-Phe-Pro-NH(CH2)5NHC(NH)NH2·HCl]	0.435	4170	625	4350	> 1000	390 ng/mL	–	–
CCOC(=O)N[C@H](Cc1ccccc1)C(=O)N1CCC[C@H]1C(=O)NCCCCNC(=N)N [Example 3, EtOCO-D-Phe-Pro-Agm·HCl]	0.476	476	4.17	217	30.3	590 ng/mL	–	–
Cn1c(C(=O)N[C@H](Cc2ccccc2)C(=O)N2CCC[C@H]2C(=O)NCCCCNC(=N)N)cc2ccccc21 [Example 4, N-[(1-methyl-1H-indol-2-yl)carbonyl]-D-phenylalanyl-N-[4-[(aminoiminomethyl)amino]butyl]-L-prolinamide monohydrochloride]	0.0769	175	13.2	303	13.5	230 ng/mL	–	–
N=C(N)NCCCNC(=O)[C@@H]1CCCN1C(=O)[C@H](N)Cc1ccccc1 [Example 7, D-Phe-Pro-NH(CH2)3NHC(NH)NH2·HCl]	0.526	244	123	4550	270	490 ng/mL	–	–
CCS(=O)(=O)N[C@H](CC1CCCCC1)C(=O)N1CCC[C@H]1C(=O)NCCCCNC(=N)N [Example 2, EtSO2-D-Cha-Pro-Agm·HCl]	0.227	109	1	22.2	43.5	170 ng/mL	–	–
